From patent US20070088019A1, “Macroheterocyclic compounds as kinase inhibitors” (priority 2005, published 2007)

Columns and labels:
[1] = biological target: T1, recombinant rabbit GSK-3β protein (Oryctolagus cuniculus, UniProt G1T8E2); experiment: Glycogen Synthase Kinase-3 assay; type: biochemical; settings: PPI-2 substrate, 33P-ATP, 90 minutes at 30° C.
T1 construct: purchased New England Biolabs
Method: Glycogen Synthase Kinase-3 Assay
Compounds were tested for the ability to inhibit recombinant rabbit GSK-3β protein using the following protocol. The test compound was added to a reaction mixture containing Protein phosphatase inhibitor-2 (PPI-2) (Calbiochem) (45 ng), rabbit GSK-3β protein (New England Biolabs) (0.75 units) and ^33P-ATP (1 μCi) in 50 mM Tris-HCl (pH 8.0), 10 mM MgCl2, 0.1% BSA, 1 mM DTT and 100 μM Sodium Vanadate. The mixture was reacted for 90 minutes at 30° C. to allow phosphorylation of the PPI-2 protein and then the protein in the reaction was precipitated using 10% TCA. The precipitated protein was collected on filter plates (MultiScreen-DV/Millipore), which were subsequently washed. Finally, the radioactivity was quantified using a TopCount Scintillation Counter (Packard). […] Staurosporine or Valproate, known inhibitors of GSK-3β, were used as a positive control for screening.

PKC isoform γ = PKC isoform γ (Homo sapiens, UniProt P05129); experiment: Protein Kinase C histone-based assay, PKC gamma; type: biochemical; settings: histone substrate, 30 μM ATP, 10 min at 30° C.
Method: (§1) Protein Kinase C Histone-Based Assay
(§2) Compounds were evaluated for PKC selectivity using histone III as the substrate. The PKC isoforms α, β-II or γ were added to a reaction mixture containing 20 mM HEPES, (pH 7.4), […] CaCl2, 10 mM MgCl2, 1 mM EGTA. 100 μg/mL phosphatidylserine, 20 μg/mL diacylglycerol, 30 μM ATP, 1 μCi (^33P)ATP, and 200 μg/mL […]. The reaction was incubated for 10 min at 30° C. Reactions were terminated by TCA precipitation and spotting on Whatman P81 filters. Filters were washed in 75 mM phosphoric acid and the radioactivity quantified by liquid scintillation counting.

PKC isoform β-II = PKC isoform β-II (Homo sapiens, UniProt P05771); experiment: Protein Kinase C histone-based assay, PKC beta II; type: biochemical; settings: histone substrate, 30 μM ATP, 10 min at 30° C.
PKC isoform β-II, sequence (P05771 1-673 isoform P05771-2): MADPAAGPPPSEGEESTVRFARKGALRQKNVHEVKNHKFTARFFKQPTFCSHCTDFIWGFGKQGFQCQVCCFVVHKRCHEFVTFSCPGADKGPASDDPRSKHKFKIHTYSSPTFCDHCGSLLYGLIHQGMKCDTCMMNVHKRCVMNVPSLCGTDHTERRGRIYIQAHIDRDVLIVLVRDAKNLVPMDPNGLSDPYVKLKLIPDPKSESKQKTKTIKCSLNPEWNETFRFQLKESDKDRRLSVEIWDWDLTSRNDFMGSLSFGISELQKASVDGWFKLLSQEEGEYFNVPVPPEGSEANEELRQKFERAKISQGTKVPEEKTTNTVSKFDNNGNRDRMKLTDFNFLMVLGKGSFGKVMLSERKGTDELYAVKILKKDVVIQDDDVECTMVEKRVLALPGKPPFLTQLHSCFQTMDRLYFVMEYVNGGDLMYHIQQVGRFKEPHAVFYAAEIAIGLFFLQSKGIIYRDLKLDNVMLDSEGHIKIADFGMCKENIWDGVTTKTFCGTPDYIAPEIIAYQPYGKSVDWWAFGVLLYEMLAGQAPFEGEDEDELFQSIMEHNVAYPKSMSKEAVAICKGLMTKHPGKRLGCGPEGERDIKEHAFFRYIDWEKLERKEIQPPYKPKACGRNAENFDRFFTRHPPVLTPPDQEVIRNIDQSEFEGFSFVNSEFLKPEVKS
Method: as §1, §2

PKC Beta I = PKC Beta I (Homo sapiens, UniProt P05771); experiment: Protein Kinase C histone-based assay, PKC beta I; type: biochemical; settings: histone substrate, 30 μM ATP, 10 min at 30° C.
PKC Beta I, sequence (P05771 whole entry, canonical isoform): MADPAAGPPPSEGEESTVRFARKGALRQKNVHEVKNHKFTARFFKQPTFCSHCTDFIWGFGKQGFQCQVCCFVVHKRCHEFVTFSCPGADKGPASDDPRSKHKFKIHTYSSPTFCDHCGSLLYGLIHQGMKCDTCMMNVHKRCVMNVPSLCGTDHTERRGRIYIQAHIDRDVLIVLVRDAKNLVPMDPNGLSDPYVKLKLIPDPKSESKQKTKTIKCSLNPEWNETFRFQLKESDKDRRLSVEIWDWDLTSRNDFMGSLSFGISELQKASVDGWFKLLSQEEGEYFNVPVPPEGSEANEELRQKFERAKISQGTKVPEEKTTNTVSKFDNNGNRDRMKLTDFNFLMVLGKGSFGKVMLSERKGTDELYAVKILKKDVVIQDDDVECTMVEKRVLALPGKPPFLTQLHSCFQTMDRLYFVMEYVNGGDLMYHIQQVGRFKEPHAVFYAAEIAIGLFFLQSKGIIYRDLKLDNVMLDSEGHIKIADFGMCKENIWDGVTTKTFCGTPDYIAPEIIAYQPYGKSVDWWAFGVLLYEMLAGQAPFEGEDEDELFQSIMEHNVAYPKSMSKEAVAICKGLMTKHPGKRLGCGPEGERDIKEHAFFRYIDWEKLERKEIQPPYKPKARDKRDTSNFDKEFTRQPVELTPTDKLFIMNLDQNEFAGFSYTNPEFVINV

PKC isoform α = PKC isoform α (Homo sapiens, UniProt P17252); experiment: Protein Kinase C histone-based assay, PKC alpha; type: biochemical; settings: histone substrate, 30 μM ATP, 10 min at 30° C.
Method: as §1, §2

[2] = tested on: retinal neovascularization; experiment: Murine retinopathy in-vivo model (oxygen-induced retinopathy); set-up: species or system mouse; settings: 60 mg/kg
Source text: Murine Retinopathy In-Vivo Model
The methods used in this model are known to those skilled in the art and are referenced in the scientific literature, such as Smith, L. E., Wesolowski, E., McLellan, A., Kostyk, S. K., D'Amato, R., Sullivan, R., and D'Amore, P. A. “Oxygen-induced retinopathy in the mouse”. Invest. Ophthalmol. Vis. Sci., 1994, January; 35(1): 101-11.

T1 sequence (G1T8E2 1-432): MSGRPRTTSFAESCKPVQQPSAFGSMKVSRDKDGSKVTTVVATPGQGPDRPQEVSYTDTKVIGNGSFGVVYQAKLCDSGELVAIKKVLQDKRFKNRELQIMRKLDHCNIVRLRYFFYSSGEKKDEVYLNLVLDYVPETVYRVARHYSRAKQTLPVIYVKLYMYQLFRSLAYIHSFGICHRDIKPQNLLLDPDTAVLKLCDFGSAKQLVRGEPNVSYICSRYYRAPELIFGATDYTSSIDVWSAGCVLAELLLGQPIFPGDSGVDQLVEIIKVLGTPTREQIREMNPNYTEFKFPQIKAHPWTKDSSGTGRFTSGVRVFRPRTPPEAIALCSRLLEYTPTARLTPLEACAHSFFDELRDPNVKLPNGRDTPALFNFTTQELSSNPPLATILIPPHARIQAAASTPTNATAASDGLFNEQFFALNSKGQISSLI

SMILES | IC50 [1] | IC50 (PKC isoform γ) | IC50 (PKC isoform β-II) | IC50 (PKC Beta I) | IC50 (PKC isoform α) | retinal neovascularization [2]
O=C1NC(=O)C2=C1c1cn(c3ccccc13)CCNCCSCCNCCn1cc2c2ccccc21 [Compound 1, 10,11,12,13,14,16,17,18,19,20-decahydro-15-thio-2,9,12,18,21-pentaaza-1H-diindolo[1,2,3-m,n:3′,2′,1′-r,s]cyclononadec-14,16,18-trien[16,17-c]-pyrrole-2,5-dione] | 0.005 µM | 0.36 µM | 0.006 µM | 0.009 µM | 0.16 µM | 
CN1CCOCCN(C)CCn2cc(c3ccccc32)C2=C(C(=O)NC2=O)c2cn(c3ccccc23)CC1 [Compound 2, 12,18-dimethyl-10,11,12,13,14,16,17,18,19,20-decahydro-15-oxa-2,9,12,18,21-pentaaza-1H-diindolo[1,2,3-m,n:3′,2′,1′-r,s]cyclononadec-14,16,18-trien[16,17-c]-pyrrole-2,5-dione] | 0.006 µM | 1.56 µM | 0.041 µM | 0.027 µM | 0.49 µM | 
O=C1NC(=O)C2=C1c1cn(c3ccccc13)CCNCCOCCNCCn1cc2c2ccccc21 [Compound 3, 10,11,12,13,14,16,17,18,19,20-decahydro-15-oxa-2,9,12,18,21-pentaaza-1H-diindolo[1,2,3-m,n:3′,2′,1′-r,s]cyclononadec-14,16,18-trien[16,17-c]-pyrrole-2,5-dione] | 0.007 µM | 5.84 µM | 0.013 µM | 0.009 µM | 0.33 µM | inhibited retinal neovascularization
CN1CCOCCNCCn2cc(c3ccccc32)C2=C(C(=O)NC2=O)c2cn(c3ccccc23)CC1 [Compound 4, 18-methyl-10,11,12,13,14,16,17,18,19,20-decahydro-15-oxa-2,9,12,18,21-pentaaza-1H-diindolo[1,2,3-m,n:3′,2′,1′-r,s]cyclononadec-14,16,18-trien[16,17-c]-pyrrole-2,5-dione] |  | 1.2 µM | 0.008 µM | 0.006 µM | 0.28 µM | 
